Experiments:
[1] = tested on: Gloeophyllum trabeum (ATCC 11539); assay: Soil block decay test (AWPA E10-87), brown rot; assay type: cell-based
Source text: (§1) Wood flakeboard was manufactured by conventional wood processing techniques, incorporating various borates at a range of concentrations, from 0.5 to 2.0% boric acid equivalent (BAE). Boric acid (H3BO3) equivalent is a commonly used convention for comparing various borates on an equivalent contained-boron basis. For each borate/loading combination, fifteen pounds of aspen (Populus tremuloides) furnish having an average particle size of about 2.5×0.75×0.025 inches, was blended with 0.75 pounds (5%) Rubinate 1840 (product of ICI), a polymeric methylene diphenyl diisocyanate adhesive, 0.11 pounds (0.75%) of Cascowax EW 403HS (product of Borden) and various concentrations of nine test borates. For each borate/loading combination, three 18″×18″ composite boards of 0.5 inch thickness were formed by pressing for 210 seconds at (180 seconds pressure, 30 seconds pressure release) at 204.5° C. (the pressure was kept in excess of 6000 psi during the pressure cycle). Each board was trimmed to 15″×15″ and cut to produce internal bond and analytical/soil block specimens for evaluation. Replicates were cut from the inner portion of the boards. Four internal bond, two leaching panels and twenty analytical/soil block specimens were cut from each board.
(§2) The panels to be leached (4.5″×4.5″) were edge sealed with an epoxy sealant and leached for two weeks. Leaching began with pressure treatment of the specimens with water for 30 minutes under vacuum and one hour under pressure. The specimens were removed from the pressure treatment chamber and the residual water was changed after two hours, then daily for the remainder of the leaching period. Afterward, they were trimmed to remove the sealed edges and cut into analytical/soil block test samples. Unleached and leached analytical/soil block samples for each board type were separately randomized. Fifteen were analyzed for borate content and ten were retained for the soil block decay test.
(§3) The soil block test was conducted in accordance with AWPA E10-87, with the exception that soil block dimensions were 1.0″×1.0″×0.5″. The fungi used were Gloeophyllum trabeum (ATCC 11539) for brown rot test and Trametes versicolor (MAD 697) for white rot test. An untreated composite control was run both unleached and leached. Solid southern yellow pine and birch were also run as unleashed controls against G. trabeum and T. versicolor, respectively as a test of fungal vigor.

[2] = tested on: Trametes versicolor (MAD 697); assay: Soil block decay test (AWPA E10-87), white rot; assay type: cell-based
Source text: as §1, §2, §3

[3] = Borate content of composite after two weeks water leaching; assay type: physicochemical; settings: leached two weeks
Description: as §2

[4] = Bulk solids flow testing, J. R. Johanson Indicizer System; assay type: physicochemical
Source text: Bulk solids flow testing was done using the J. R. Johanson Indicizer System, including a Hang-up Indicizer and Hopper Indicizer, manufactured by J R Johanson, Inc. 712 Fiero Lane #37, San Luis Obispo, Calif. 93401. The test procedures are described in detail in their company literature (BULK SOLIDS INDICES TESTING, Hang-up Indicizer™ Instruction Manual ©JR Johanson, Inc. 1991 and BULK SOLIDS INDICES TESTING, Hopper Indicizer™ Instruction Manual ©JR Johanson, Inc. 1991). The results are presented in the following Table 3 as the Arching Index, Ratholing Index, Hopper Index and Chute Index, which are the average of several tests (3-6). The meaning and usefulness of these flow indices in evaluating the flow properties of bulk solids are also described in literature from JR Johanson, Inc., including Binside Scoop™, Vol. 7, No. 2, Fall 1994, Binside Scoop™, Vol. 8, No. 3, Winter 1995, and “Bulk solids Flow Indices—A Simplified Evaluation system”, by Jerry R. Johanson, ©JR Johanson, 1991.
Arching Index—A tendency of a cohesive material is to plug up the opening of a bin by forming an “arch” over the discharge opening. The arching index is given as a multiple of the discharge opening, so less than 1 is necessary for free flow. Numbers greater than 1 reflect a need to enlarge the opening.
Ratholing Index—A tendency of a cohesive material is to hang up on the sides of a bin while an open hole forms in the center and flow ceases. Rathole indices are also given as a multiple of the discharge opening and a number of less than 1 is necessary for free flow. Numbers greater than 1 mean the bins should be redesigned.
Hopper Index—The maximum angle, measured in degrees from the vertical, that is required for the conical portion of a hopper in order to produce reliable mass flow. A larger number is better.
Chute Index—The minimum angle, measured in degrees from horizontal, required for flow down a chute and to prevent material buildup at impact areas. A smaller number is better. Chute indices may often be close to the angle of repose.
Both hopper and chute indices measurements involve friction over a specified surface and measurements are made using substrates of the material of construction. The substrates used for these tests are 304-2B Stainless Steel, aged carbon steel and Tivar UHMWPE (ultra high molecular weight polyethylene) plastic.

[5] = leached two weeks, target loading 0.5% BAE (0.09% B)
[6] = leached two weeks, target loading 1.0% BAE (0.17% B)
[7] = leached two weeks, target loading 2.0% BAE (0.35% B)
[8] = unleached aspen flakeboard, target loading 0.5% BAE (0.09% B)
[9] = unleached aspen flakeboard, target loading 1.0% BAE (0.17% B)
[10] = unleached aspen flakeboard, target loading 2.0% BAE (0.35% B)
[11] = multiple of the discharge opening, less than 1 necessary for free flow, average of 3-6 tests, Glass Grade

Q: Which results are given for Colemanite [Colemanite (1)]?
A: Comparison with zinc borate against G. trabeum ([1]; after leaching): roughly comparable to zinc borate; Mean % Wt. Loss G. trabeum [1, 5]: 5.5%; Mean % Wt. Loss G. trabeum [1, 6]: 1.5%; Mean % Wt. Loss G. trabeum [1, 7]: 1.0%; Mean % Wt. Loss G. trabeum [1, 8]: 0.6%; Mean % Wt. Loss G. trabeum [1, 9]: 1.0%; Mean % Wt. Loss G. trabeum [1, 10]: 1.5%; Comparison with zinc borate against T. versicolor ([2]; after leaching): roughly comparable to zinc borate; Mean % Wt. Loss T. versicolor [2, 5]: 27.5%; Mean % Wt. Loss T. versicolor [2, 6]: 8.4%; Mean % Wt. Loss T. versicolor [2, 7]: 2.5%; Mean % Wt. Loss T. versicolor [2, 8]: 3.9%; Mean % Wt. Loss T. versicolor [2, 9]: 3.7%; Mean % Wt. Loss T. versicolor [2, 10]: 2.4%; Assay % B ([3]; target loading 0.5% BAE (0.09% B)): 0.03 % B; Assay % B ([3]; target loading 1.0% BAE (0.17% B)): 0.07 % B; Assay % B ([3]; target loading 2.0% BAE (0.35% B)): 0.19 % B; Hopper Index Stainless Steel ([4]; 304-2B Stainless Steel, maximum angle from the vertical, larger is better, Glass Grade): 14 degrees; Chute Index Stainless Steel ([4]; 304-2B Stainless Steel, minimum angle from horizontal, smaller is better, Glass Grade): 76 degrees; Hopper Index Plastic ([4]; Tivar UHMWPE plastic, maximum angle from the vertical, larger is better, Glass Grade): 8 degrees; Chute Index Plastic ([4]; Tivar UHMWPE plastic, minimum angle from horizontal, smaller is better): 90 degrees; Hopper Index Carbon Steel ([4]; aged carbon steel, maximum angle from the vertical, larger is better, Glass Grade): 3 degrees; Chute Index Carbon Steel ([4]; aged carbon steel, minimum angle from horizontal, smaller is better, Glass Grade): 82 degrees; Arching Index [4, 11]: 0.7; Ratholing Index [4, 11]: 4.7
